In PMC12406652 (Antimicrobial Agents and Chemotherapy, 2025):

How the values were obtained:
[1] = in vivo
[2] = human, in vivo; for AUCinf, geometric LS mean, Reference / Cmax, geometric LS mean, Reference: 400 mg
[3] = human, in vivo

## Nc1nc(/C(=C/CC(=O)O)C(=O)N[C@@H]2C(=O)N3C(C(=O)O)=CCS[C@H]23)cs1 (relative stereo) [Cis-ceftibuten, cis-ceftibuten]
[1]
  Fe0-8 recovered in urine, of the last dose: 50-68%
[2]
  AUCinf, geometric LS mean, Test: 79030 ng·h/mL
  Cmax, geometric LS mean, Test: 15410 ng/mL
  AUCinf, geometric LS mean, Reference: 90090 ng·h/mL
  Cmax, geometric LS mean, Reference: 17560 ng/mL
[3]
  Change in geometric mean AUCtau from the first to the last dose: 44-52%

## Nc1nc(/C(=C\CC(=O)O)C(=O)N[C@@H]2C(=O)N3C(C(=O)O)=CCS[C@H]23)cs1 (relative stereo) [Trans-ceftibuten, trans-ceftibuten]
[1]
  Fe0-8 recovered in urine, of the last dose: 20-23%
[2]
  AUCinf, geometric LS mean, Test: 8946 ng·h/mL
  Cmax, geometric LS mean, Test: 1319 ng/mL
  AUCinf, geometric LS mean, Reference: 10400 ng·h/mL
  Cmax, geometric LS mean, Reference: 1552 ng/mL
[3]
  Change in geometric mean AUCtau from the first to the last dose: 64-75%
